As usually defined, the IC50 is the concentration that inhibits the measured activity by half.

For data set [1], the target named is Serine/threonine-protein kinase ATR (Homo sapiens, UniProt Q13535). Description: Inhibition of ATR (unknown origin) using GST-cMyc-p53 as substrate incubated for 30 mins in the presence of Mg/ATP mix by HTRF-based analysis. (In general: Time-resolved FRET reads energy transfer from a long-lived donor to a nearby acceptor.)
For data set [2], the target named is T1, Serine-protein kinase ATM (Homo sapiens, UniProt Q13315). The experiment in a line: Inhibition of ATM phosphorylation in human SW620 cells with IR-induced DNA damage in the presence of 3 Gy irradiation by Western blot analysis. The data set is classed as cell-based. To be noted: dose 3-250 nM. (A western blot detects proteins with antibodies after separation by electrophoresis.)
T1 sequence (Q13315 whole entry): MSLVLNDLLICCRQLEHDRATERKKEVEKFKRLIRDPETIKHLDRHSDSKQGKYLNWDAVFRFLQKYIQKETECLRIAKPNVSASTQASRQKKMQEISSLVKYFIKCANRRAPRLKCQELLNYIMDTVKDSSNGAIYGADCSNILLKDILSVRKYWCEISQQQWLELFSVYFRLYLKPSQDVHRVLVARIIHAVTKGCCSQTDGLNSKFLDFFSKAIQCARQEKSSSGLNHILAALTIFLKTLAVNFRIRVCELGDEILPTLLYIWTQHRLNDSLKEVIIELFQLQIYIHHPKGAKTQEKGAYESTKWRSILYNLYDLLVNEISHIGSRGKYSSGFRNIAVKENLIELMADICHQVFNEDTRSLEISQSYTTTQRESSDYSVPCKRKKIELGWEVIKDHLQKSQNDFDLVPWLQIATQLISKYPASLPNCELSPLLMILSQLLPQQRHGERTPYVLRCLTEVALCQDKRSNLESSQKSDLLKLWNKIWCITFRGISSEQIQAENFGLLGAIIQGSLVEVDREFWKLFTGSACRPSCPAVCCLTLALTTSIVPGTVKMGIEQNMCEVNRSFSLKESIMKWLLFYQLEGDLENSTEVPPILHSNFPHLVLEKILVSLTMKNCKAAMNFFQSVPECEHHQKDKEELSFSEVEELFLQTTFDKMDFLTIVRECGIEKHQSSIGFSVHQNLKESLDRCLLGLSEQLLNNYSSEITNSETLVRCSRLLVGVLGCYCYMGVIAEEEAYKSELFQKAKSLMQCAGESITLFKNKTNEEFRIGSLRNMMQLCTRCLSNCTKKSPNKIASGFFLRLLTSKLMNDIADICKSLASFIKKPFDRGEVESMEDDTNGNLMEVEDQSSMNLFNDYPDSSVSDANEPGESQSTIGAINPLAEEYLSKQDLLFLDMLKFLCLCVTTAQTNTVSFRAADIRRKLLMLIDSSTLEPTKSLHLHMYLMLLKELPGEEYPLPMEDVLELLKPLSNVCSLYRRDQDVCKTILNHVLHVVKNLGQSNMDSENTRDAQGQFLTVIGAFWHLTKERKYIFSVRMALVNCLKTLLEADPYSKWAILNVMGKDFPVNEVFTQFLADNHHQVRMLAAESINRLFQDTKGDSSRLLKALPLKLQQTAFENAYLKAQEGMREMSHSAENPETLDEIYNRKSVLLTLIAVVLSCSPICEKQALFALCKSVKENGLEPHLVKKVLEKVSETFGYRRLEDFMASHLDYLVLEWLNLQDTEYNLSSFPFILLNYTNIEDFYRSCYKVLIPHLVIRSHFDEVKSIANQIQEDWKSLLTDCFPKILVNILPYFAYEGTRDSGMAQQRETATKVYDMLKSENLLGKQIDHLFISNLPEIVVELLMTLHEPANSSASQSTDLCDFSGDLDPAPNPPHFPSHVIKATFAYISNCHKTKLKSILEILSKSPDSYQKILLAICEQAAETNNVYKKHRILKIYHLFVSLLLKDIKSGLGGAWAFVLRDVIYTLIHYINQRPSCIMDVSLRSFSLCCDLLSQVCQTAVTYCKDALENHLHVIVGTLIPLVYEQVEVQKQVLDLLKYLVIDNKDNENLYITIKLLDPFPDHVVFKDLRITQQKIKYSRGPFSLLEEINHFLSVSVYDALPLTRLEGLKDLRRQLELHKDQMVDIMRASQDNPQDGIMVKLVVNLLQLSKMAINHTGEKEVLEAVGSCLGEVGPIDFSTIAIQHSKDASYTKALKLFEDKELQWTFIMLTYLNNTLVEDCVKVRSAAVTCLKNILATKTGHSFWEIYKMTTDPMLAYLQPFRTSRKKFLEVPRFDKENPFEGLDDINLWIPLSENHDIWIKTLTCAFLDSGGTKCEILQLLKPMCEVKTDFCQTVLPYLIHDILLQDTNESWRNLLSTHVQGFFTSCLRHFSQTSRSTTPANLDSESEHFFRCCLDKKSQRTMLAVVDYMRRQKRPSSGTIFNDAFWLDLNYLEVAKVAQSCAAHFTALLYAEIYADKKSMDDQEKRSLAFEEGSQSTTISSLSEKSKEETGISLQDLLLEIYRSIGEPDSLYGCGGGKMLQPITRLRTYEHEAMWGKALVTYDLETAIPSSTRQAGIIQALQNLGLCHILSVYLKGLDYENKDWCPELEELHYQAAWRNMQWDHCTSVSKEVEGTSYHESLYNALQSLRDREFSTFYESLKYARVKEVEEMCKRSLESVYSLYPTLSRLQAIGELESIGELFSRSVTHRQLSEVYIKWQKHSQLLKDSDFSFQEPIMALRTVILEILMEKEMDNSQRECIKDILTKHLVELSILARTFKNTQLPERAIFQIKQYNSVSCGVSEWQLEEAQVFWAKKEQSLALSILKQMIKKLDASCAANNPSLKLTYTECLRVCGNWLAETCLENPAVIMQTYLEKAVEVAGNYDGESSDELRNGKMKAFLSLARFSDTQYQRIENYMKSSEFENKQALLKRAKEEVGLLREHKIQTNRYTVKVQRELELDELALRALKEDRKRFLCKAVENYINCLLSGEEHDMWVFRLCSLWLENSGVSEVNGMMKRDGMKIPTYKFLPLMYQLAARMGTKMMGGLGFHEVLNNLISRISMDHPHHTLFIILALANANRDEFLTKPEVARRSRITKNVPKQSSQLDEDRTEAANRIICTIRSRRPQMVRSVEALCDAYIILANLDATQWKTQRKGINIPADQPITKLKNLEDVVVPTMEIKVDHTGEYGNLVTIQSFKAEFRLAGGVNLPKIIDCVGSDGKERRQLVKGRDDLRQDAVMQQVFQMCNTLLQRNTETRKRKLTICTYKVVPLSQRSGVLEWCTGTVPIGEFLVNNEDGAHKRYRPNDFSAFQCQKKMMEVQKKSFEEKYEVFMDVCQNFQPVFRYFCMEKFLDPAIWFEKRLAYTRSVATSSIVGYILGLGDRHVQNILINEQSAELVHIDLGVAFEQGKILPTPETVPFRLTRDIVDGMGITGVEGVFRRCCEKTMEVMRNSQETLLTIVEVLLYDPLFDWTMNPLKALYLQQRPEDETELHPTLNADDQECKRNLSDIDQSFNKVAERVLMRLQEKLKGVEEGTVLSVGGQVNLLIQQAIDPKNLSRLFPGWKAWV

Data set [3] relates to HCT-116. Description: Induction of apoptosis in human HCT-116 cells assessed as necrotic cells at 100 nM measured after 72 hrs in presence of CPT-11 by Annexin V-FITC staining based flow cytometric analysis (reference value: 2.41%). The data set is classed as functional. Background: In flow cytometry, cells or beads pass a laser one at a time.
A short description of data set [4]: Toxicity in BALB/c mouse xenografted with human SW620 cells assessed as spleen damage at 5 mg/kg, ip administered once daily and measured after 23 days by H&E staining based microscopic analysis. The class given is organism-based, SW-620. The settings on record: in vivo, 552 h, time 23 day.
Data set [5] concerns HCT-116. Description: Induction of apoptosis in human HCT-116 cells assessed as necrotic cells at 100 nM measured after 72 hrs by Annexin V-FITC staining based flow cytometric analysis (reference value: 2.41%). The class given is functional.
The test system of data set [6] is SW-620. The experiment in a line: Induction of apoptosis in human SW620 cells assessed as late apoptotic cells at 30 nM measured after 72 hrs in presence of CPT-11 by Annexin V-FITC staining based flow cytometric analysis (reference value: 5.75%). The data set is classed as functional.
Data set [7] has as its target PI3-kinase p110-alpha/p85-alpha (Homo sapiens, UniProt P42336). Description: Inhibition of human PI3K p110 alpha/p85 alpha using phosphatidylinositol-4, 5-bisphosphate as substrate incubated for 30 mins in the presence of Mg/ATP mix by HTRF-based analysis. The class given is protein-complex assay.
Data set [8] deals with SW-620. Description: Induction of apoptosis in human SW620 cells assessed as late apoptotic cells at 10 nM measured after 72 hrs in presence of CPT-11 by Annexin V-FITC staining based flow cytometric analysis (reference value: 5.75%). The class given is functional.
Data set [9] concerns SW-620. Description: Induction of apoptosis in human SW620 cells assessed as necrotic cells at 10 nM measured after 72 hrs in presence of CPT-11 by Annexin V-FITC staining based flow cytometric analysis (reference value: 5.83%). The class given is functional.
Data set [10] addresses T1, Serine-protein kinase ATM. Description: Inhibition of ATM in human SW620 cells assessed as increase in gamma H2AX foci accumulation at 50 to 250 nM incubated for 24 hrs in the presence of CPT-11 by confocal microscopic analysis. The data set is classed as cell-based. To be noted: dose 50-250 nM.
Data set [11] relates to HCT-116. The experiment in a line: Induction of apoptosis in human HCT-116 cells assessed as necrotic cells at 30 nM measured after 72 hrs in presence of CPT-11 by Annexin V-FITC staining based flow cytometric analysis (reference value: 2.41%). The data set is classed as functional.
The test system of data set [12] is HCT-116. The experiment in a line: Induction of apoptosis in human HCT-116 cells assessed as necrotic cells at 1 uM measured after 72 hrs by Annexin V-FITC staining based flow cytometric analysis (reference value: 2.41%). The data set is classed as functional.
Data set [13] relates to SW-620. The experiment in a line: Induction of apoptosis in human SW620 cells assessed as viable cells at 10 nM measured after 72 hrs in presence of CPT-11 by Annexin V-FITC staining based flow cytometric analysis (reference value: 87.36%). The data set is classed as functional. The settings on record: read-out: Activity.
The subject of data set [14] is HCT-116. The experiment in a line: Cell cycle arrest in human HCT-116 cells assessed as accumulation of cells at G2/M phase incubated for 24 hrs in presence of CPT-11 by PI staining based flow cytometric analysis. The data set is classed as functional. To be noted: dose 10-100 nM.
For data set [15], the system named is SW-620. Description: Induction of apoptosis in human SW620 cells assessed as early apoptotic cells at 100 nM measured after 72 hrs by Annexin V-FITC staining based flow cytometric analysis (reference value: 1.06%). The class given is functional.

Each structure is given as a SMILES string. Calls of active or inactive are those of the source. No cut-off for these calls is given here.

Sequence of PI3-kinase p110-alpha/p85-alpha (P27986 whole entry): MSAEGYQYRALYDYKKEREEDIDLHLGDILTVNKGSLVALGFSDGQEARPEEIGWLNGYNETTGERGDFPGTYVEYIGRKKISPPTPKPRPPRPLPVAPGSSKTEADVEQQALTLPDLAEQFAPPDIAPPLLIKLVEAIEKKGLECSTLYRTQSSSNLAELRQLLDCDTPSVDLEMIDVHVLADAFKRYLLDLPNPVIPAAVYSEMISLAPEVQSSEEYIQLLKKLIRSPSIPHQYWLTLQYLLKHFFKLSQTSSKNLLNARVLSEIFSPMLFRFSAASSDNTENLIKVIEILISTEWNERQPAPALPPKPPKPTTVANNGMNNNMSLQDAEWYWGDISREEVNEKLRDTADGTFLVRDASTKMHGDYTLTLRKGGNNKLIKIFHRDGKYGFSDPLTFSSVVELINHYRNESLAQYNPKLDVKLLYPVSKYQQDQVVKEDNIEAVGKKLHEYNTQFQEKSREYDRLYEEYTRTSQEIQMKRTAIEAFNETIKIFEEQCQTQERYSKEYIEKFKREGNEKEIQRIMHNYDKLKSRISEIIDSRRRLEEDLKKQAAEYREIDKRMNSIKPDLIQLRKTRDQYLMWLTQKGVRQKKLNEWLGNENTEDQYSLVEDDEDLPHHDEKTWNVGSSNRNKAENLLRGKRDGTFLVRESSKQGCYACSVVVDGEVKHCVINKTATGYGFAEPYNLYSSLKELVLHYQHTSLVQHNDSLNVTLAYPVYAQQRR
Sequence of PI3-kinase p110-alpha/p85-alpha (P42336 whole entry): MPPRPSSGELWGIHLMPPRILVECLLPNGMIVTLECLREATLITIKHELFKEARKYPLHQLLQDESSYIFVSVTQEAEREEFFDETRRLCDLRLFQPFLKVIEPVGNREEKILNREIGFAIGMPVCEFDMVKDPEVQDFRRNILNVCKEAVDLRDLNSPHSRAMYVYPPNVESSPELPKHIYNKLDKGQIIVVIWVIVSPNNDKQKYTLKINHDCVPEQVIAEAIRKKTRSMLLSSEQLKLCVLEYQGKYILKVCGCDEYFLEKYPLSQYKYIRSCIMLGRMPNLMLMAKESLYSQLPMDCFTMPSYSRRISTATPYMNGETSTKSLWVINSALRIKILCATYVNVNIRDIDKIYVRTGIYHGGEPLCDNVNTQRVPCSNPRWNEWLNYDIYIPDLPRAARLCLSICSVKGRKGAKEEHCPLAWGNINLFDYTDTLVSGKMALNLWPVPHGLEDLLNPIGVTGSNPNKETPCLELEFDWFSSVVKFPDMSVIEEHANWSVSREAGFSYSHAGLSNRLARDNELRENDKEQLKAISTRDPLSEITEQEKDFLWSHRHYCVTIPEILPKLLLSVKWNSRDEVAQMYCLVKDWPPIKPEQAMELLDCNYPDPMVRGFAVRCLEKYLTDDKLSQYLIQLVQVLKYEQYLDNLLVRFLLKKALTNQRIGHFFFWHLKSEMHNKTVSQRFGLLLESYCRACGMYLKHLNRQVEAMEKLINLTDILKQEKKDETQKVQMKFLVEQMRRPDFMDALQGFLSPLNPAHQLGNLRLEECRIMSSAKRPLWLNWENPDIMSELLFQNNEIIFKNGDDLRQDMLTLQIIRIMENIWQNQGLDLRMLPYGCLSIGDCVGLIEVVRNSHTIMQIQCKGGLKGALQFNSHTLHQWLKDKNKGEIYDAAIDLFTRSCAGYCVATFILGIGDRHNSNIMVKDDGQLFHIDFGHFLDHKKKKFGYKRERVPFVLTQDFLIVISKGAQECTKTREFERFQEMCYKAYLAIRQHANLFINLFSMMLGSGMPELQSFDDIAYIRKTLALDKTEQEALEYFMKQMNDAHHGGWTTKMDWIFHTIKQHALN

Take `C[C@H](c1ccccc1)n1nnc2cnc3ccc(-c4ccc(OCCCN(C)C)nc4)cc3c21`: the half-inhibitory concentration (IC50) in data set [1] and in data set [7] was more than 10 µM each time. In data set [2], the inhibition result is “Dose-Dependent Effect”. In addition, the Activity in the data set with HCT-116 [3] is 7.04%; in data set [4], “Non-Toxic”; in the data set on HCT-116 [5] it was 9.24%; in the data set on SW-620 [6], 44%; in the data set with SW-620 [8], 27.19%; with SW-620 [9] it was 5.94%. The Activity is 8.39% with HCT-116 [11], 5.57% in the data set with HCT-116 [12], “Dose-Dependent Effect” in the data set with HCT-116 [14] and 1.88% in the data set with SW-620 [15]. Further, the inhibition entry in data set [10] was “Active”. In addition, the viability at 0.01 µM in the data set with SW-620 [13] turned out to be 64.1%.
